Source: patent US8399465B2, “Compounds with two fused bicyclic heteroaryl moieties as modulators of leukotriene A4 hydrolase” (Janssen Pharmaceutica NV, priority 2009, dated 2013)
Where a name gives a salt, the structure may show the parent alone.

What follows are compounds tested against T1, recombinant human LTA4 hydrolase (rhLTA4H) (Homo sapiens, UniProt P09960) (assay: Recombinant human LTA4 hydrolase assay for LTA4 hydrolase inhibitor activity). Details: rhLTA4H, LTB4 by immunoassay; single determination or average of two or more; mark after value = form tested: ′ free base, ″ hydrochloride, ^ formate; read-out: IC50.
T1 construct: made in house; host or cells: Spodoptera frugiperda (Sf-9) cells, baculovirus (pFastBac1)
T1 sequence (P09960 1-611): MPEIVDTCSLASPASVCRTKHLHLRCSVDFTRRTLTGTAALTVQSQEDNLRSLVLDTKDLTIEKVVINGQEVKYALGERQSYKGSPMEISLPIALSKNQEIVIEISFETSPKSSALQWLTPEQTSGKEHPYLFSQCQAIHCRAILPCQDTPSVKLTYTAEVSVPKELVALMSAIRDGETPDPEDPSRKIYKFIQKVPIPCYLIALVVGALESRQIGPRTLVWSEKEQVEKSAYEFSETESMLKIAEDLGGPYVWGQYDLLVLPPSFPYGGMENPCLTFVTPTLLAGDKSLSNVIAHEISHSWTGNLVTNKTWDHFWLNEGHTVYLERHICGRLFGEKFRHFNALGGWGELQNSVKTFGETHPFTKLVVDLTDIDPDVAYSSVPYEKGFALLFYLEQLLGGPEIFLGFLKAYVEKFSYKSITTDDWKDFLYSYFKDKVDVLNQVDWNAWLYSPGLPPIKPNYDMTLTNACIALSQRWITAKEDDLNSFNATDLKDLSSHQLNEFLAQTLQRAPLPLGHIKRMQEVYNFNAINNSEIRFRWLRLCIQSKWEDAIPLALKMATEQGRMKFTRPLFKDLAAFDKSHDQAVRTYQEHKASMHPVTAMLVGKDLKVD
Assay type: biochemical
Procedure: Assay 1: Recombinant Human LTA4 Hydrolase Assay for LTA4 Hydrolase Inhibitor Activity
Compounds of the present invention were tested for LTA4 hydrolase inhibitor activity against recombinant human LTA4 hydrolase (rhLTA4H). Vectors were prepared and used to express rhLTA4H essentially as follows: LTA4 hydrolase encoding DNA was amplified by polymerase chain reaction (PCR) using a human placental cDNA library as a template. […] The amplified 1.9 kb DNA fragment encoding LTA4 hydrolase was isolated and cloned into the pFastBac1 vector (Invitrogen). Recombinant baculovirus was generated as described by the manufacturer, and used to infect Spodoptera frugiperda (Sf-9) cells. […] The purified enzyme solution was adjusted to contain 0.29 mg/mL LTA4 hydrolase, 50 mM Tris (pH 8.0), 150 mM NaCl, 5 mM dithiothreitol, 50% glycerol, and EDTA-free Complete protease inhibitor cocktail (Roche).
LTA4 substrate was prepared from the methyl ester of LTA4 (Cayman Chemical) by treatment with 67 equiv of NaOH under nitrogen at rt for 40 min. The LTA4 substrate in its free acid form was kept frozen at −80° C. until needed. Each compound was diluted to different concentrations in assay buffer (from Assay Designs) containing 10% DMSO. A 25-μL aliquot of each compound dilution was incubated for 10 min at rt with an equal volume of assay buffer containing 10 ng of recombinant human LTA4H. The solution was then adjusted to 200 μL with assay buffer. […] Each reaction was carried out at rt for 30 min. The reaction was stopped by diluting 10 μL of the reaction mixture with 200 μL of assay buffer. LTB4 was quantified in the diluted sample by a commercially available enzyme-linked immunoassay (Cayman Chemical Co.), as recommended by the manufacturer. Positive controls, under essentially identical conditions but without addition of an inhibitor compound, and negative controls, containing all assay components except enzyme, were routinely run in each experiment. IC50 values were determined by nonlinear regression of the activity data at different compound concentrations using Graphpad Prism 4.0, one site binding competition.
The values presented here are the result of a single determination or an average of two or more determinations. Compounds that were not tested are indicated as such by a “NT” designation.
Compound `CC(=O)NC1CCN(Cc2coc3cc(Oc4nc5nc(C)ccc5s4)ccc23)CC1` [Example 250, N-{1-[6-(5-Methyl-thiazolo[4,5-b]pyridin-2-yloxy)-benzofuran-3-ylmethyl]-piperidin-4-yl}-acetamide formate] has an IC50 of 467 nM. `CC(=O)NC1CCN(Cc2coc3cc(Oc4nc5ncc(Cl)cc5s4)ccc23)CC1` [Example 254, N-{1-[6-(6-Chloro-thiazolo[4,5-b]pyridin-2-yloxy)-benzofuran-3-ylmethyl]-piperidin-4-yl}-acetamide formate] showed an IC50 of 108 nM. For `CC(=O)N1CCC2(CCN(Cc3coc4cc(Oc5nc6ncccc6s5)ccc34)CC2)C1` [Example 265, 1-{8-[6-(Thiazolo[4,5-b]pyridin-2-yloxy)-benzofuran-3-ylmethyl]-2,8-diaza-spiro[4.5]dec-2-yl}-ethanone], the IC50 was less than 1 nM. With `CC(=O)NC1CCN(Cc2cc3ncc(Oc4nc5ncccc5s4)cc3o2)CC1` [Example 273, N-{1-[6-(Thiazolo[4,5-b]pyridin-2-yloxy)-furo[3,2-b]pyridin-2-ylmethyl]-piperidin-4-yl}-acetamide formate] the IC50 was 160 nM. Work on `CC(=O)N1C[C@@H]2C[C@H]1CN2Cc1cc2ncc(Oc3nc4ncccc4s3)cc2o1` [Example 274, (1S,4S)-1-{5-[6-(Thiazolo[4,5-b]pyridin-2-yloxy)-furo[3,2-b]pyridin-2-ylmethyl]-2,5-diaza-bicyclo[2.2.1]hept-2-yl}-ethanone formate] yielded an IC50 of 250 nM. In the case of `c1cnc(N2CCN(Cc3coc4cc(Oc5nc6ncccc6s5)ccc34)CC2)nc1` [Example 292, 2-[3-(4-Pyrimidin-2-yl-piperazin-1-ylmethyl)-benzofuran-6-yloxy]-thiazolo[4,5-b]pyridine formate], the IC50 is reported as 40 nM. `c1ccc2c(c1)CCN(Cc1coc3cc(Oc4nc5ncccc5s4)ccc13)C2` [Example 293, 2-[6-(Thiazolo[4,5-b]pyridin-2-yloxy)-benzofuran-3-ylmethyl]-1,2,3,4-tetrahydro-isoquinoline formate] gave an IC50 of 19 nM. With `CN1CCC(N(C)Cc2coc3cc(Oc4nc5ncccc5s4)ccc23)CC1` [Example 294, Methyl-(1-methyl-piperidin-4-yl)-[6-(thiazolo[4,5-b]pyridin-2-yloxy)-benzofuran-3-ylmethyl]-amine] the IC50 was 24 nM. `CC(=O)N[C@H]1C[C@H]2CC[C@@H](C1)N2Cc1cc2ncc(Oc3nc4ncccc4s3)cc2o1` [Example 296, meso-endo-N-{8-[6-(Thiazolo[4,5-b]pyridin-2-yloxy)-furo[3,2-b]pyridin-2-ylmethyl]-8-aza-bicyclo[3.2.1]oct-3-yl}-acetamide formate] gave an IC50 of 850 nM. With `c1cnc2nc(Oc3ccc4c(CNCCN5CCCCC5)coc4c3)sc2c1` [Example 305, (2-Piperidin-1-yl-ethyl)-[6-(thiazolo[4,5-b]pyridin-2-yloxy)-benzofuran-3-ylmethyl]-amine] the IC50 was 31 nM. `NS(=O)(=O)c1ccc(CCNCc2coc3cc(Oc4nc5ccccc5s4)ccc23)cc1` [Example 311, 4-(2-{[6-(Benzothiazol-2-yloxy)-benzofuran-3-ylmethyl]-amino}-ethyl)-benzenesulfonamide] showed an IC50 of 230 nM. Work on `CCN(CC)CCNCc1coc2cc(Oc3nc4ncccc4s3)ccc12` [Example 317, N,N-Diethyl-N′-[6-(thiazolo[4,5-b]pyridin-2-yloxy)-benzofuran-3-ylmethyl]-ethane-1,2-diamine] yielded an IC50 of 35 nM. Compound `CCN(Cc1coc2cc(Oc3nc4ncccc4s3)ccc12)C1CCCCC1` [Example 318, Cyclohexyl-ethyl-[6-(thiazolo[4,5-b]pyridin-2-yloxy)-benzofuran-3-ylmethyl]-amine formate] has an IC50 of less than 1 nM. In the case of `c1ccc(OCCNCc2coc3cc(Oc4nc5ncccc5s4)ccc23)cc1` [Example 319, (2-Phenoxy-ethyl)-[6-(thiazolo[4,5-b]pyridin-2-yloxy)-benzofuran-3-ylmethyl]-amine formate], the IC50 is reported as 52 nM. `c1ccc2c(c1)CC(NCc1coc3cc(Oc4nc5ncccc5s4)ccc13)C2` [Example 320, Indan-2-yl-[6-(thiazolo[4,5-b]pyridin-2-yloxy)-benzofuran-3-ylmethyl]-amine formate] was tested, and the IC50 was 15 nM.
